From paper PMC11881559 (Antimicrobial Agents and Chemotherapy, 2025)
Where “and” joins values, the source holds several entries; their conditions need not be identical. Equal entries are not always repeated.

How the values were obtained:
[1] = Tolerability and safety assessment (AEs/ADRs, CTCAE 5.0); assay type: in vivo, human
Protocol: Safety and tolerability assessments were conducted for all participants who received at least one dose of RAY1216, either alone or in combination with ritonavir, throughout the study. The safety of all participants was evaluated on the basis of clinical symptoms, vital signs, 12-lead ECG, laboratory tests, physical examinations, and the evaluation of adverse events (AEs). All AEs were documented and graded according to the Common Terminology Criteria for Adverse Events (CTCAE, ver. 5.0). The grading scale was as follows: grade 1 (mild), grade 2 (moderate), grade 3 (severe), grade 4 (life threatening), and grade 5 (death).

[2] = Preclinical toxicology, NOAEL in dogs; assay type: in vivo; conditions: from dog NOAEL, at 60 kg body weight
wild-type strain = conditions: in vitro, corrected by the plasma protein binding rate; cited from earlier work
[3] = Multiple ascending dose (MAD) study, plasma PK; conditions: for t1/2: mean ± SD

Compound: O=C(NC1CCCC1)C(=O)[C@H](C[C@@H]1CCNC1=O)NC(=O)[C@@H]1[C@H]2CCC[C@H]2CN1C(=O)[C@@H](NC(=O)C(F)(F)F)C1CCCCC1 [RAY1216, leritrelvir]
- ALT elevated (ADR) ([1]; SAD, 800 mg (N = 6)): 0 n (%)
- AST elevated (ADR) ([1]; SAD, 800 mg (N = 6)): 0 n (%)
- Anemia (ADR) ([1]; SAD, 800 mg (N = 6)): 0 n (%)
- Bilirubin elevated (ADR) ([1]; SAD, 800 mg (N = 6)): 0 n (%)
- Diarrhea (ADR) ([1]; SAD, 800 mg (N = 6)): 0 n (%)
- Fatigue (ADR) ([1]; SAD, 800 mg (N = 6)): 0 n (%)
- Grade 2 ADRs ([1]; SAD, 800 mg (N = 6)): 0 n (%)
- Grade ≥3 AEs ([1]; SAD, 800 mg (N = 6)): 0 n (%)
- Hypertriglyceridemia (ADR) ([1]; SAD, 800 mg (N = 6)): 0 n (%)
- Hyperuricemia (ADR) ([1]; SAD, 800 mg (N = 6)): 0 n (%)
- Leukopenia (ADR) ([1]; SAD, 800 mg (N = 6)): 0 n (%)
- Nausea (ADR) ([1]; SAD, 800 mg (N = 6)): 0 n (%)
- Neutrophil decreased (ADR) ([1]; SAD, 800 mg (N = 6)): 0 n (%)
- Palpitations (ADR) ([1]; SAD, 800 mg (N = 6)): 0 n (%)
- Serum creatinine elevated (ADR) ([1]; SAD, 800 mg (N = 6)): 0 n (%)
- ADR, n (%) ([1]; SAD, 1,600 mg (N = 6)): 2 (33.3) n (%)
- AE, n (%) ([1]; SAD, 1,600 mg (N = 6)): 2 (33.3) n (%)
- ALT elevated (ADR) ([1]; SAD, 1,600 mg (N = 6)): 0 n (%)
- AST elevated (ADR) ([1]; SAD, 1,600 mg (N = 6)): 0 n (%)
- Anemia (ADR) ([1]; SAD, 1,600 mg (N = 6)): 0 n (%)
- Bilirubin elevated (ADR) ([1]; SAD, 1,600 mg (N = 6)): 1 (16.7) n (%)
- Diarrhea (ADR) ([1]; SAD, 1,600 mg (N = 6)): 0 n (%)
- Fatigue (ADR) ([1]; SAD, 1,600 mg (N = 6)): 0 n (%)
- Grade 2 ADRs ([1]; SAD, 1,600 mg (N = 6)): 0 (0.0) n (%)
- Grade ≥3 AEs ([1]; SAD, 1,600 mg (N = 6)): 0 n (%)
- Hypertriglyceridemia (ADR) ([1]; SAD, 1,600 mg (N = 6)): 1 (16.7) n (%)
- Hyperuricemia (ADR) ([1]; SAD, 1,600 mg (N = 6)): 1 (16.7) n (%)
- Leukopenia (ADR) ([1]; SAD, 1,600 mg (N = 6)): 0 n (%)
- Nausea (ADR) ([1]; SAD, 1,600 mg (N = 6)): 0 n (%)
- Neutrophil decreased (ADR) ([1]; SAD, 1,600 mg (N = 6)): 0 n (%)
- Palpitations (ADR) ([1]; SAD, 1,600 mg (N = 6)): 0 n (%)
- Serum creatinine elevated (ADR) ([1]; SAD, 1,600 mg (N = 6)): 0 n (%)
- participants reporting at least one ADR ([1]; SAD, 1,600 mg cohort, two participants): 33.3%
- participants reporting at least one ADR ([1]; SAD, 6 out of 32 participants): 18.8%
- ADR, n (%) ([1]; SAD/DDI, 200 mg (N = 6)): 2 (33.3) n (%)
- AE, n (%) ([1]; SAD/DDI, 200 mg (N = 6)): 2 (33.3) n (%)
- ALT elevated (ADR) ([1]; SAD/DDI, 200 mg (N = 6)): 0 n (%)
- AST elevated (ADR) ([1]; SAD/DDI, 200 mg (N = 6)): 0 n (%)
- Anemia (ADR) ([1]; SAD/DDI, 200 mg (N = 6)): 0 n (%)
- Bilirubin elevated (ADR) ([1]; SAD/DDI, 200 mg (N = 6)): 0 n (%)
- Diarrhea (ADR) ([1]; SAD/DDI, 200 mg (N = 6)): 0 n (%)
- Fatigue (ADR) ([1]; SAD/DDI, 200 mg (N = 6)): 0 n (%)
- Grade 2 ADRs ([1]; SAD/DDI, 200 mg (N = 6)): 1 (16.7) n (%)
- Grade ≥3 AEs ([1]; SAD/DDI, 200 mg (N = 6)): 0 n (%)
- Hypertriglyceridemia (ADR) ([1]; SAD/DDI, 200 mg (N = 6)): 2 (33.3) n (%)
- Hyperuricemia (ADR) ([1]; SAD/DDI, 200 mg (N = 6)): 0 n (%)
- Leukopenia (ADR) ([1]; SAD/DDI, 200 mg (N = 6)): 0 n (%)
- Nausea (ADR) ([1]; SAD/DDI, 200 mg (N = 6)): 0 n (%)
- Neutrophil decreased (ADR) ([1]; SAD/DDI, 200 mg (N = 6)): 0 n (%)
- Palpitations (ADR) ([1]; SAD/DDI, 200 mg (N = 6)): 0 n (%)
- Serum creatinine elevated (ADR) ([1]; SAD/DDI, 200 mg (N = 6)): 0 n (%)
- grade 3 or above AEs, withdrawal due to AEs, SAEs ([1]; all cohorts): No grade 3 or above AEs, participant withdrawal due to AEs, or SAEs occurred
- participants reporting at least one ADR ([1]; food-effect study, RAY1216 alone, 5 out of 12 participants): 41.7%
- participants reporting at least one ADR ([1]; food-effect study, RAY1216 alone, after meals, 4 out of 12): 33.3%
- participants reporting at least one ADR ([1]; food-effect study, RAY1216 alone, fasting, 2 out of 12): 16.7%
- human equivalent dose [2]: ~21,000 mg/day
- antiviral 90% effective concentration (EC90) (wild-type strain): 0.165 µg/mL
- plasma concentration reached a steady state by ([3]; 400 mg TID): ≤ 2 days
- AUC0-t ([3]; 400 mg TID, Day 1, mean (%CV)): 9,720 (36) ng·h/mL
- AUC0-tau ([3]; 400 mg TID, Day 1, mean (%CV)): 10,600 (30.4) ng·h/mL
- AUC0-∞ ([3]; 400 mg TID, Day 1, mean (%CV)): 13,300 (32) ng·h/mL
- Cmax ([3]; 400 mg TID, Day 1, mean (%CV)): 3,450 (37.2) ng/mL
- MRT0-∞ ([3]; 400 mg TID, Day 1, mean (%CV)): 3.93 (16.5) h
- t1/2 ([3]; 400 mg TID, Day 1): 2.31 ± 0.465 h
- Tmax ([3]; 400 mg TID, Day 1, median (range)): 1.5 (1.0, 2.0) h
- AUC0-t ([3]; 400 mg TID, Day 5, mean (%CV)): 15,400 (32.5) ng·h/mL
- AUC0-tau ([3]; 400 mg TID, Day 5, mean (%CV)): 10,000 (36) ng·h/mL
- AUC0-∞ ([3]; 400 mg TID, Day 5, mean (%CV)): 15,500 (32.2) ng·h/mL
- Cmax ([3]; 400 mg TID, Day 5, mean (%CV)): 2,700 (32.3) ng/mL
- Cmin,ss ([3]; 400 mg TID, Day 5, mean (%CV)): 382 ng/mL and 382 (44.9) ng/mL
- MRT0-∞ ([3]; 400 mg TID, Day 5, mean (%CV)): 6.23 (18.9) h
- t1/2 ([3]; 400 mg TID, Day 5): 9.61 ± 2.26 h
- Tmax ([3]; 400 mg TID, Day 5, median (range)): 1.5 (1.0, 3.0) h
- Tmax ([3]; 400 mg TID, continuous administration): 1.5 h
- plasma concentrations reached a steady state by ([3]; 300, 500 or 700 mg with 100 mg ritonavir BID): ≤ 2 days
